According to patent US20130072424A1, “COMPOUNDS AND METHODS FOR PEPTIDE RIBONUCLEIC ACID CONDENSATE PARTICLES FOR RNA THERAPEUTICS” (MARINA BIOTECH, INC., priority 2005, published 2013):
Ends that are not written are not given here. Peptide text beside a SMILES is read from it. * marks the point of attachment. 5FAM = O=C1OC2(c3ccc(O)cc3Oc3cc(O)ccc32)c2ccc(C(=O)*)cc21

Assays:
[1] = tested on: mouse tail fibroblast (MTF) cells; test: Polypeptide mediated siRNA delivery screen (Cy5-siRNA cell-uptake and MFI), Example 17; format: cell-based; details: for MFI measurement relative to the PN643 positive control, in words / MFI measurement relative to the positive control: Cy5-conjugated siRNA; for percent siRNA cell-uptake activity (Table 24): Cy5 conjugated LC20 siRNA, concentration not given
Procedure: siRNA uptake by cells was assessed by flow cytometry (refer to Example 2 for details). Uptake was expressed as a percentage calculated by dividing the number of cells containing Cy5-conjugated siRNA by the total number of transfected and untransfected cells in culture. Mean Fluorescence Intensity (MFI) was measured by flow cytometry and determined the amount of Cy5-conjugated siRNA found within cells. The MFI value directly correlates with the amount of Cy5-conjugated siRNA within the cell, thus, a higher MFI value indicates a greater number of Cy5-conjugated siRNA within the cells.

hTNF-α mRNA = test: Knockdown of hTNF-α gene expression by siRNA/peptide complexes in LPS-stimulated human monocytes (branch DNA mRNA); format: cell-based; details: for siRNA Knockdown Activity: 20 nM siRNA
Procedure: Specifically, the ability of siRNA/peptide complexes to modulate expression of the human tumor necrosis factor-α (hTNF-α) gene was assessed. The significance of targeting the hTNF-α gene is that it is implicated in mediating the occurrence or progression of rheumatoid arthritis (RA) when over-expressed in human and other mammalian subjects.
Human monocytes were used as a model system to determine the effect of siRNA/peptide complexes on hTNF-α gene expression. Qneg represents a random siRNA sequence and functioned as the negative control. […] A19S21, 21/21 and LC20 are siRNAs that target hTNF-α mRNA.
Healthy human blood was purchased from Golden West Biologicals (CA), the peripheral blood mononuclear cells (PBMC) were purified from the blood using Ficoll-Pague plus (Amersham) gradient. Human monocytes were then purified from the PBMCs fraction using magnetic microbeads from Miltenyi Biotech. Isolated human monocytes were resuspended in IMDM supplemented with 4 mM glutamine, 10% FBS, 1× non-essential amino acid and 1× pen-strep, and stored at 4 C until use.
In a 96 well flat bottom plate, human monocytes were seeded at 100 K/well/100 μl in OptiMEM medium (Invitrogen). Exemplary polynucleotide delivery-enhancing polypeptides were mixed with 20 nM siRNA at a molar ratio of 1 to 5 in OptiMEM medium at room temperature for 5 minutes. At the end of incubation, FBS was added to the mixture (final 3%), and 50 μl of the mixture was added to the cells. The cells were incubated at 37° C. for 3 hours. After incubation, the cells were transferred to V-bottom plate and pelleted at 1500 rpm for 5 min. The cells were resuspended in growth medium (IMDM with glutamine, non-essential amino acid, and pen-strep). After an overnight incubation, the monocytes were stimulated by application of LPS (Sigma) at 1 ng/ml for 3 hours to increase expression of TNF-α expression levels. After induction by LPS, cells were collected as above for mRNA quantification, and supernatant was saved for protein quantification if desired.
For mRNA measurement, branch DNA technology from Genospectra (CA) was used according to manufacturer's specification. To quantitate mRNA level in the cells, both house keeping gene (cypB) and target gene (TNF-α) mRNA were measured, and the reading for TNF-α was normalized with cypB to obtain relative luminescence unit. […]

human monocytes = test: Cytotoxicity with human monocytes; format: cell-based
[2] = tested on: primary mouse tail fibroblast (MTF) cells; test: Peptide cell-uptake assay (FITC-labeled peptide, flow cytometry); format: cell-based; details: peptide 10 μM
Procedure: The efficacy of the full-length and truncated forms of polypeptide PN73 to enter cells was tested in vitro by a cell-uptake assay with primary mouse tail fibroblast (MTF) cells. The number of cells in culture that receive the FITC-labeled peptide was measured by flow cytometry. The percentage peptide cell-uptake was expressed relative to the total number of cells present in the culture. In addition, the Mean Fluorescence Intensity (MFI) was used to evaluate the quantity of FITC-labeled peptide found within cells. MFI directly correlates with the amount of FITC-labeled peptide within the cell: higher relative MFI value correlates with a greater amount of intracellular FITC-labeled peptides. Peptides were evaluated at 0.63 μM, 2.5 μM and 10 μM concentrations; PN768 was tested at 2 μM, 10 μM and 50 μM. […]

[3] = tested on: mouse tail fibroblast (MTF) cells; test: siRNA cell-uptake assay and MFI (Cy5-conjugated siRNA, flow cytometry), Examples 14-16; format: cell-based
Procedure: As described above, the cell-uptake assay determines the number of cells that receive Cy5-conjugated siRNA when complexed with a peptide. siRNA cell-uptake was assessed by flow cytometry (refer to Example 2 for details). Uptake was expressed as a percentage calculated by dividing the number of cells containing Cy5-conjugated siRNA by the total number of transfected and untransfected cells in culture. Mean Fluorescence Intensity (MFI) was measured by flow cytometry and determined the amount of Cy5-conjugated siRNA found within cells. The MFI value directly correlates with the amount of Cy5-conjugated siRNA within the cell, thus, a higher MFI value indicates a greater number of Cy5-conjugated siRNA within the cells.
The siRNA cell-uptake assay and MFI measurements were performed as described previously in Examples 2 and 3. […]

in vitro = details: mouse, mouse tail fibroblast (MTF) cells
Procedure: Fluorescence activated cell sorting (FACS) analysis were performed using Beckman Coulter FC500 cell analyzer (Fullerton, Calif.). The instrument was adjusted according to the fluorescence probes used (FAM or Cy5 for siRNA and FITC and PE for CD14). Propidium iodide (Fluka, St Louis) and AnnexinV (R&D systems, Minneapolis) were used as indicators for cell viability and cytotoxicity. A brief step-by-step protocol is detailed below. • (a) After exposure to the complex of siRNA/peptide, cells were incubated for at least 3 hours. • (b) Wash cells with 200 μl PBS. • (c) Detach cells with 15 μl TE, incubate at 370 C. • (d) Re-suspend cells in five wells with 30 μl FACS solution (PBS with 0.5% BSA, and 0.1% sodium Azide). • (e) Combine all five wells into a tube. • (f) Add PI (Propidium iodide) 5 μl into each tube. • (g) Analyze the cells with fluorescence activated cell sorting (FCAS) according to manufacturer's instructions.
For siRNA uptake analysis, cells were washed with PBS, treated with trypsin (attached cells only), and then analyzed by flow cytometry. […] In order to differentiate the cellular uptake from the membrane insertion of fluorescence labeled siRNA, trypan blue was used to quench the fluorescence on the cell membrane surface.
FITC-tagged peptides were diluted in Opti-MEM® media (Invitrogen) for about 5 minutes at room temperature and then added to cells. Cells were transfected for 3 hours at and washed with PBS, treated with trypsin, and then analyzed by flow cytometry. Cell viability was determined as above. Cellular uptake was distinguished from the membrane insertion using trypan blue to quench any fluorescence on the cell membrane surface.

[4] = siRNA 21/21 MD8, siRNA:Peptide Ratio 1:5, human monocytes
[5] = siRNA 21/21 MD8, siRNA:Peptide Ratio 1:10, human monocytes
[6] = siRNA A19S21 MD8, siRNA:Peptide Ratio 1:5, human monocytes
[7] = siRNA A19S21 MD8, siRNA:Peptide Ratio 1:10, human monocytes
[8] = siRNA LC20, siRNA:Peptide Ratio 1:5, human monocytes
[9] = siRNA LC20, siRNA:Peptide Ratio 1:10, human monocytes

In the case of “KETWWETWWTEWSQPKKKRKV-amide (KETWWETWWTEWSQPKKKRKV-NH2) [PN682, Pep-1]”, the “MFI measurement relative to the PN643 positive control, in words” value [1] is reported as “comparable”.
With “RKKRRQRRRPPVAYISRGGVSTYYSDTVKGRFTRQKYNKRA-amide (RKKRRQRRRPPVAYISRGGVSTYYSDTVKGRFTRQKYNKRA-NH2) [PN760, TAT + Peptide P3a]” the “MFI measurement relative to the positive control” value [1] was “approximately 13 fold”.
For “GTAMRILGGVIPRKKRRQRRRPPQ-amide (GTAMRILGGVIPRKKRRQRRRPPQ-NH2) [PN734, m-Calpain + TAT]”, the “MFI measurement relative to the PN643 positive control, in words” value [1] was “significantly lower”.
In the case of “LGLLLRHLRHHSNLLANIPRKKRRQRRRPP-amide (LGLLLRHLRHHSNLLANIPRKKRRQRRRPP-NH2) [PN759]”, the “MFI measurement relative to the positive control” value [1] is reported as about 6 fold.
With “RSVCRQIKICRRRGGCYYKCTNRPY-amide (RSVCRQIKICRRRGGCYYKCTNRPY-NH2; cysteine pairing not given here) [PN680, Androctonin]” the “MFI measurement relative to the PN643 positive control, in words” value [1] was “comparable”, the “hTNF-α mRNA knockdown relative to the Qneg/PN680 control complex, in words” value (hTNF-α mRNA; any of the hTNF-α specific siRNAs at a 1:5 ratio) was “significant knockdown activity” and the “siRNA Knockdown Activity” value (hTNF-α mRNA; [4]) was “+ (the peptide/siRNA complex had knockdown activity of 80% of the Qneg negative control siRNA (20% reduction in mRNA levels compared to the Qneg negative control))”. The “siRNA Knockdown Activity” value (hTNF-α mRNA; [5]) was “+/− (the peptide/siRNA complex had a knockdown activity of approximately 90% of the Qneg negative control siRNA (10% reduction in mRNA levels compared to the Qneg negative control))”, the “siRNA Knockdown Activity” value (hTNF-α mRNA; [6]) was “+ (the peptide/siRNA complex had knockdown activity of 80% of the Qneg negative control siRNA (20% reduction in mRNA levels compared to the Qneg negative control))” and the “siRNA Knockdown Activity” value (hTNF-α mRNA; [7]) was “+/− (the peptide/siRNA complex had a knockdown activity of approximately 90% of the Qneg negative control siRNA (10% reduction in mRNA levels compared to the Qneg negative control))”. For the same molecule, the “siRNA Knockdown Activity” value (hTNF-α mRNA; [8]) was “+ (the peptide/siRNA complex had knockdown activity of 80% of the Qneg negative control siRNA (20% reduction in mRNA levels compared to the Qneg negative control))” and the “siRNA Knockdown Activity” value (hTNF-α mRNA; [9]) was “+ (the peptide/siRNA complex had knockdown activity of 80% of the Qneg negative control siRNA (20% reduction in mRNA levels compared to the Qneg negative control))”.
In the case of “RQIKIWFQNRRMKWKK-amide (RQIKIWFQNRRMKWKK-NH2) [PN694, Penetratin]”, the “MFI measurement relative to the PN643 positive control, in words” value [1] is reported as “significantly lower” and the “percent siRNA cell-uptake activity (Table 24)” value [1] is reported as 54%.
In the case of “RQIRIWFQNRRMRWRR-amide (RQIRIWFQNRRMRWRR-NH2) [PN714, PenArg]”, the “MFI measurement relative to the PN643 positive control, in words” value [1] is reported as “significantly lower” and the “percent siRNA cell-uptake activity (Table 24)” value [1] is reported as 43%.
With “KKKKKRFSFKKSFKLSGFSFKKNKK-amide (KKKKKRFSFKKSFKLSGFSFKKNKK-NH2) [PN681, MARCKS]” the “MFI measurement relative to the PN643 positive control, in words” value [1] was “double”, the “hTNF-α knockdown relative to Qneg complexed with the same polypeptide, in words” value (hTNF-α mRNA; all three siRNAs, ratios of 1:5 and 1:10, human monocytes) was “little to no knockdown activity” and the “siRNA Knockdown Activity” value (hTNF-α mRNA; [4]) was “−”. The “siRNA Knockdown Activity” value (hTNF-α mRNA; [5]) was “−”, the “siRNA Knockdown Activity” value (hTNF-α mRNA; [6]) was “+/− (the peptide/siRNA complex had a knockdown activity of approximately 90% of the Qneg negative control siRNA (10% reduction in mRNA levels compared to the Qneg negative control))” and the “siRNA Knockdown Activity” value (hTNF-α mRNA; [7]) was “+/− (the peptide/siRNA complex had a knockdown activity of approximately 90% of the Qneg negative control siRNA (10% reduction in mRNA levels compared to the Qneg negative control))”. The “siRNA Knockdown Activity” value (hTNF-α mRNA; [8]) was “−” and the “siRNA Knockdown Activity” value (hTNF-α mRNA; [9]) was “−”.
For RKESYSVYVYKVLKQ-NH2 [PN766], the cytotoxicity effects (human monocytes) was “No cytotoxicity effects were observed”.
With `CC(C)C[C@H](NC(=O)[C@@H](NC(=O)[C@H](CCCCN)NC(=O)[C@H](Cc1ccc(O)cc1)NC(=O)[C@@H](NC(=O)[C@H](Cc1ccc(O)cc1)NC(=O)[C@@H](NC(=O)[C@H](CO)NC(=O)[C@H](Cc1ccc(O)cc1)NC(=O)[C@H](CO)NC(=O)[C@H](CCC(=O)O)NC(=O)[C@H](CCCCN)NC(=O)[C@@H](N)CCCNC(=N)N)C(C)C)C(C)C)C(C)C)C(=O)N[C@@H](CCCCN)C(=O)N[C@@H](CCC(N)=O)C(=O)NCC(=O)N[C@@H](CCCCNC(=O)c1ccc2c(c1)C(=O)OC21c2ccc(O)cc2Oc2cc(O)ccc21)C(=O)NCC(N)=O` [PN708] (H-RKESYSVYVYKVLKQGK(5FAM)G-NH2) the “% Peptide Cell-Uptake” value [2] was 97 (10 μM) %, the “Peptide FITC MFI” value ([2]; relative values) was 10 (10 μM) and the KD (hTNF-α mRNA; knockdown of hTNF-α mRNA vs Qneg, siRNAs A19S21, 21/21, LC20 at 20 nM, molar ratio 1 to 5, human monocytes) was “+ (the peptide/siRNA complex had knockdown activity of 80% of the Qneg negative control siRNA (20% reduction in mRNA levels compared to the Qneg negative control))”. For the same molecule, the “siRNA knockdown activity of TNF-α mRNA, in words” value (hTNF-α mRNA; siRNAs A19S21, 21/21 and LC20, human monocytes) was “no observable knockdown activity”, the “amount of Cy5-siRNA delivered into cells compared to the full-length PN73 (PN690) peptide” value [3] was “about doubled” and the “maximum siRNA cell-uptake activity” value ([3]; Cy5-LC20 siRNA, PN708 at 80 μM) was 95%. The “% siRNA Cell-Uptake” value ([3]; peptide 10 μM) was 42 (10 μM) %, the “siRNA Cy5 MFI” value ([3]; peptide 10 μM, relative values) was 34 (10 μM) and the viability at 3 h (in vitro) was over 90%.
